Laboratory results: JP2013241470A, “ペプチド含有組成物” (Kikkoman Corp, priority 2013, dated 2013)

Biological target: T1, ACE (angiotensin converting enzyme) (アンジオテンシン変換酵素) (Oryctolagus cuniculus, UniProt P12822)
T1 construct: 0.3U/ml ACE(ウサギ肺由来、シグマ製); purchased Sigma (シグマ); host or cells: rabbit lung tissue
T1 sequence (P12822 34-1310): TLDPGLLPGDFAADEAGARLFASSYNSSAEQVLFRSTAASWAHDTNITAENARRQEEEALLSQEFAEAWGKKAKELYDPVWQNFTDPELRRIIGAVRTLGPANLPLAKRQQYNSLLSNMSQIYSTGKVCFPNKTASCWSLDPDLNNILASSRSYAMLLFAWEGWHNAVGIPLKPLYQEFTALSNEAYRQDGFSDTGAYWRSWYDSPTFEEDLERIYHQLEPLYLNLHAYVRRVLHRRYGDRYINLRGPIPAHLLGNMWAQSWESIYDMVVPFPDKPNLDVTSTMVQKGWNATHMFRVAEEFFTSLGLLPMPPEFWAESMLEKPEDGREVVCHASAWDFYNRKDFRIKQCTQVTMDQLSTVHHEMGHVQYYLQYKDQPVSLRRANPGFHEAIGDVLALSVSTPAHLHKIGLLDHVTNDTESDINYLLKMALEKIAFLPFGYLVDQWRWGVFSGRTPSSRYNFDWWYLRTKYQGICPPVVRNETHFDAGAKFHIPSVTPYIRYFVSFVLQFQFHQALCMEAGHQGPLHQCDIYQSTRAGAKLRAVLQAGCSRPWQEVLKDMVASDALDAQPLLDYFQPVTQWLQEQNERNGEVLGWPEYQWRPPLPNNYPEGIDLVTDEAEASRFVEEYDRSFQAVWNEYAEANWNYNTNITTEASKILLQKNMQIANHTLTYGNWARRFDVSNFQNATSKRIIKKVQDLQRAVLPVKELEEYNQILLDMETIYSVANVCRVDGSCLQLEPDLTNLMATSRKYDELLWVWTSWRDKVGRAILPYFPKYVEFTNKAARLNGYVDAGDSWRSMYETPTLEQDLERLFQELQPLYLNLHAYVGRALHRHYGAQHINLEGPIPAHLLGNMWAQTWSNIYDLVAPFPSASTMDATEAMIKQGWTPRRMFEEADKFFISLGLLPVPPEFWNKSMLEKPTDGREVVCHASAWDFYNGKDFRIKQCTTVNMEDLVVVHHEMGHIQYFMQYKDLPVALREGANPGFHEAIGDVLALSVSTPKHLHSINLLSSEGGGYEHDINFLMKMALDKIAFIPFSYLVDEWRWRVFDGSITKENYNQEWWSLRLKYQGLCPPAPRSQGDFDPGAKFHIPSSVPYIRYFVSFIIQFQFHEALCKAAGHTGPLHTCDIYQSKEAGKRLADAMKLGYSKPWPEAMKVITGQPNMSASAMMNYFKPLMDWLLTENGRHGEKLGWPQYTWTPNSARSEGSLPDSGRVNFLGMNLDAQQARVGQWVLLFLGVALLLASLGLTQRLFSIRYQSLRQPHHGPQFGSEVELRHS
Experiment: ACE inhibitory activity (modified Cushman method, Hippuryl-His-Leu substrate)
Assay type: biochemical, rabbit

Substance: Tyr−Thr
- ACE inhibitory activity (chemically synthesised peptide, compared with known soybean-derived ACE inhibitory peptides (Table 1, not visible), ACE from rabbit lung, 37 °C, 30 min, pH 8.3): 既知のペプチドと比較して充分に強い活性を有している
- ACE inhibitory activity (chromatographic fractions during isolation from composition 1 (組成物1)): 矢印で示したピークにのみ活性が見られた
